# Results: ChEMBL document CHEMBL1139088, “Antihyperglycemic and antidyslipidemic agent from Aegle marmelos” (2007)
# Active and inactive are the calls of the source. The calls are words filed in the database; no cut-off is given here.
# Key:
# Hamster [1] = test: Increase in plasma HDL-C levels in dyslipidemic hamster model at 108 mg/kg after 7 days; format: functional, organism-based; design: dose 108 mg/kg; conditions: Cricetinae
# Hamster [2] = test: Decrease in plasma glycerol levels in dyslipidemic hamster model at 108 mg/kg after 7 days; format: functional, Cricetinae; design: scale not given: the % may be the effect or the level left
# Hamster [3] = test: Decrease in plasma cholesterol levels in dyslipidemic hamster model at 108 mg/kg after 7 days; format: functional, Cricetinae; design: scale not given: the % may be the effect or the level left
# Hamster [4] = test: Decrease in plasma FFA levels in dyslipidemic hamster model at 108 mg/kg after 7 days; format: functional, Cricetinae; design: scale not given: the % may be the effect or the level left
# Hamster [5] = test: Increase in ratio of plasma HDL to plasma cholesterol levels at 108 mg/kg after 7 days; format: functional, Cricetinae
# Hamster [6] = test: Decrease in plasma triglyceride levels in dyslipidemic hamster model at 108 mg/kg after 7 days; format: functional, Cricetinae; design: scale not given: the % may be the effect or the level left
# Hamster [7] = test: Decrease in plasma triglyceride levels in dyslipidemic hamster model at 50 mg/kg after 7 days; format: functional, Cricetinae; design: scale not given: the % may be the effect or the level left
# Hamster [8] = test: Decrease in plasma triglyceride levels in dyslipidemic hamster model at 30 mg/kg after 7 days; format: functional, Cricetinae; design: scale not given: the % may be the effect or the level left
# Hamster [9] = test: Increase in plasma HDL-C levels in dyslipidemic hamster model at 30 mg/kg after 7 days; format: functional, organism-based; design: dose 30 mg/kg; conditions: Cricetinae
# Hamster [10] = test: Decrease in plasma FFA levels in dyslipidemic hamster model at 50 mg/kg after 7 days; format: functional, Cricetinae; design: scale not given: the % may be the effect or the level left
# Hamster [11] = test: Decrease in plasma cholesterol levels in dyslipidemic hamster model at 50 mg/kg after 7 days; format: functional, Cricetinae; design: scale not given: the % may be the effect or the level left
# Hamster [12] = test: Decrease in plasma glycerol levels in dyslipidemic hamster model at 50 mg/kg after 7 days; format: functional, Cricetinae; design: scale not given: the % may be the effect or the level left
# Hamster [13] = test: Increase in ratio of plasma HDL to plasma cholesterol levels at 30 mg/kg after 7 days; format: functional, Cricetinae
# Hamster [14] = test: Decrease in plasma FFA levels in dyslipidemic hamster model at 30 mg/kg after 7 days; format: functional, Cricetinae; design: scale not given: the % may be the effect or the level left
# Hamster [15] = test: Increase in ratio of plasma HDL to plasma cholesterol levels at 50 mg/kg after 7 days; format: functional, Cricetinae
# Hamster [16] = test: Decrease in plasma cholesterol levels in dyslipidemic hamster model at 30 mg/kg after 7 days; format: functional, Cricetinae; design: scale not given: the % may be the effect or the level left
# Hamster [17] = test: Decrease in plasma glycerol levels in dyslipidemic hamster model at 30 mg/kg after 7 days; format: functional, Cricetinae; design: scale not given: the % may be the effect or the level left
# Hamster [18] = test: Increase in plasma HDL-C levels in dyslipidemic hamster model at 50 mg/kg after 7 days; format: functional, Cricetinae
# Homo sapiens [19] = species: Homo sapiens; test: Inhibition of PTPase
# Rattus norvegicus [20] = test: Increase in blood glucose levels in Sprague-Dawley Albino rat at 100 mg/kg, po after 24 hrs; format: functional
# Homo sapiens [21] = species: Homo sapiens; test: Inhibition of alpha-glucosidase
# Rattus norvegicus [22] = test: Increase in blood glucose levels in Sprague-Dawley Albino rat at 100 mg/kg, po after 5 hrs; format: functional
smiles,measurement,setting,value
CC(C)OC(=O)C(C)(C)Oc1ccc(C(=O)c2ccc(Cl)cc2)cc1 [FENOFIBRATE],Activity,Hamster [1],inactive
same,Activity,Hamster [2],36%
same,Activity,Hamster [3],18%
same,Activity,Hamster [4],20%
same,Activity,Hamster [5],10%
same,Activity,Hamster [6],42%
COc1ccc([C@@H](O)CNC(=O)/C=C/c2ccccc2)cc1 [AEGELINE],Activity,Hamster [7],55%
same,Activity,Hamster [8],48%
same,Activity,Hamster [9],inactive
same,Activity,Hamster [10],24%
same,Activity,Hamster [11],24%
same,Activity,Hamster [12],31%
same,Activity,Hamster [13],20%
same,Activity,Hamster [14],14%
same,Activity,Hamster [15],66%
same,Activity,Hamster [16],17%
same,Activity,Hamster [17],23%
same,Activity,Hamster [18],28%
same,Activity,Homo sapiens [19],inactive
same,Activity,Rattus norvegicus [20],16.9%
same,Activity,Homo sapiens [21],inactive
same,Activity,Rattus norvegicus [22],12.9%
CN(C)C(=N)NC(=N)N [METFORMIN],Activity,Rattus norvegicus [20],26.5%
same,Activity,Rattus norvegicus [22],23.5%
